Patent US20120121540A1 (priority 2007, published 2012)

Assay: HCV replicon assay (luciferase reporter, ET cell line)
Format: cell-based
Details: Hepatitis C virus, HCV replicon luciferase activity in ET cells
How it was run: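 EC50 and, via WST-1 cytotoxicity, TC50 were fitted with a Hill-coefficient equation to % inhibition across 10 two-fold dilutions. Compounds at 0.1 nM-[…] with 0.5% DMSO were applied 24 h post-seeding to replicon-bearing ET cells (luc-ubi-neo/NS3-5B, adaptive mutations). Firefly luciferase signal was measured after 48-72 h.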

SMILES | inhibition at 10 µM
O=C(c1nc2c(C(F)(F)F)cc(-c3ccco3)cn2c1Cl)N1CCN(Cc2ccccc2)CC1 [Compound 324, (4-Benzyl-piperazin-1-yl)-(3-chloro-6-furan-2-yl-8-trifluoromethyl-imidazo[1,2-a]pyridin-2-yl)-methanone] | 34.6%
O=C(c1nc2c(C(F)(F)F)cc(-c3ccco3)cn2c1Cl)N1CCC(Cc2ccccc2)C1 (centres unmarked) [Compound 326, (3-Benzyl-pyrrolidin-1-yl)-(3-chloro-6-furan-2-yl-8-trifluoromethyl-imidazo[1,2-a]pyridin-2-yl)-methanone] | 66.7%
Cn1cncc1CNC(=O)c1nc2c(C(F)(F)F)cc(-c3ccco3)cn2c1Cl [Compound 327, 3-Chloro-6-furan-2-yl-8-trifluoromethyl-imidazo[1,2-a]pyridine-2-carboxylic Acid (3-methyl-3H-imidazol-4-ylmethyl)-amide] | 95.4%
O=C(c1nc2c(C(F)(F)F)cc(-c3ccco3)cn2c1Cl)N1CC(Cc2ccccc2)C1 [Compound 328, (3-Benzyl-azetidin-1-yl)-(3-chloro-6-furan-2-yl-8-trifluoromethyl-imidazo[1,2-a]pyridin-2-yl)-methanone] | 72.5%
O=C(c1nc2c(C(F)(F)F)cc(-c3ccco3)cn2c1Cl)N1CCCC1c1ccc(F)cc1 (centres unmarked) [Compound 329, (3-Chloro-6-furan-2-yl-8-trifluoromethyl-imidazo[1,2-a]pyridin-2-yl)-[2-(4-fluoro-phenyl)-pyrrolidin-1-yl]-methanone] | 97.6%
CC1(C)CCCN1C(=O)c1nc2c(C(F)(F)F)cc(-c3ccoc3)cn2c1Cl [Compound 330, (3-Chloro-6-furan-3-yl-8-trifluoromethyl-imidazo[1,2-a]pyridin-2-yl)-(2,2-dimethyl-pyrrolidin-1-yl)-methanone] | 34.4%
O=C(c1nc2c(C(F)(F)F)cc(-c3ccoc3)cn2c1Cl)N1CCCC1c1ccccn1 (centres unmarked) [Compound 331, (3-Chloro-6-furan-3-yl-8-trifluoromethyl-imidazo[1,2-a]pyridin-2-yl)-(2-pyridin-2-yl-pyrrolidin-1-yl)-methanone] | 53.3%
CN(Cc1cccs1)C(=O)c1nc2c(C(F)(F)F)cc(-c3ccoc3)cn2c1Cl [Compound 332, 3-Chloro-6-furan-3-yl-8-trifluoromethyl-imidazo[1,2-a]pyridine-2-carboxylic Acid Methyl-thiophen-2-ylmethyl-amide] | 37.7%
O=C(c1nc2c(C(F)(F)F)cc(-c3ccoc3)cn2c1Cl)N1CCC(c2ccccc2F)C1 (centres unmarked) [Compound 333, (3-Chloro-6-furan-3-yl-8-trifluoromethyl-imidazo[1,2-a]pyridin-2-yl)-[3-(2-fluoro-phenyl)-pyrrolidin-1-yl]-methanone] | 98.9%
O=C(c1nc2c(C(F)(F)F)cc(-c3ccoc3)cn2c1Cl)N1CCC(c2cccc(F)c2)C1 (centres unmarked) [Compound 334, (3-Chloro-6-furan-3-yl-8-trifluoromethyl-imidazo[1,2-a]pyridin-2-yl)-[3-(3-fluoro-phenyl)-pyrrolidin-1-yl]-methanone] | 96.1%
COc1ccc(C2CCN(C(=O)c3nc4c(C(F)(F)F)cc(-c5ccoc5)cn4c3Cl)C2)cc1 (centres unmarked) [Compound 335, (3-Chloro-6-furan-3-yl-8-trifluoromethyl-imidazo[1,2-a]pyridin-2-yl)-[3-(4-methoxy-phenyl)-pyrrolidin-1-yl]-methanone] | 76.3%
O=C(c1nc2c(C(F)(F)F)cc(-c3ccoc3)cn2c1Cl)N1CCC(c2ccc(C(F)(F)F)cc2)C1 (centres unmarked) [Compound 336, (3-chloro-6-furan-3-yl-8-trifluoromethyl-imidazo[1,2-a]pyridin-2-yl)-[3-(4-trifluoromethyl-phenyl)-pyrrolidin-1-yl]-methanone] | 73.2%
O=C(c1cn2cc(-c3ccoc3)cc(C(F)(F)F)c2n1)N1CCC(c2ccccc2F)C1 (centres unmarked) [Compound 337, [3-(2-Fluoro-phenyl)-pyrrolidin-1-yl]-(6-furan-3-yl-8-trifluoromethyl-imidazo[1,2-a]pyridin-2-yl)-methanone] | 97.7%
COC(=O)c1ccccc1C1CCN(C(=O)c2nc3c(C(F)(F)F)cc(-c4ccoc4)cn3c2Cl)C1 (centres unmarked) [Compound 338, 2-[1-(3-Chloro-6-furan-3-yl-8-trifluoromethyl-imidazo[1,2-a]pyridine-2-carbonyl)-pyrrolidin-3-yl]-benzoic Acid Methyl Ester] | 49.3%
COc1ccc(C2CCN(C(=O)c3nc4c(C(F)(F)F)cc(-c5ccoc5)cn4c3Cl)C2)cc1OC (centres unmarked) [Compound 339, (3-Chloro-6-furan-3-yl-8-trifluoromethyl-imidazo[1,2-a]pyridin-2-yl)-[3-(3,4-dimethoxy-phenyl)-pyrrolidin-1-yl]-methanone] | 63%
O=C(c1nc2c(C(F)(F)F)cc(-c3ccoc3)cn2c1Cl)N1CCC(N2CCCCC2)C1 (centres unmarked) [Compound 340, (3-Chloro-6-furan-3-yl-8-trifluoromethyl-imidazo[1,2-a]pyridin-2-yl)-(3-piperidin-1-yl-pyrrolidin-1-yl)-methanone] | 65.6%

SMILES | inhibition at 10 µM
O=C(c1nc2c(C(F)(F)F)cc(-c3ccoc3)cn2c1Cl)N1CCC(c2ccccc2Cl)C1 (centres unmarked) [Compound 341, (3-Chloro-6-furan-3-yl-8-trifluoromethyl-imidazo[1,2-a]pyridin-2-yl)-[3-(2-chloro-phenyl)-pyrrolidin-1-yl]-methanone] | 83.6%
O=C(NCc1cccs1)c1cc2cc(-c3cn[nH]c3)cc(Cl)c2[nH]1 [Compound 347, 7-Chloro-5-(1H-pyrazol-4-yl)-1H-indole-2-carboxylic Acid (thiophen-2-ylmethyl)-amide] | 0.1%
O=C(NCc1cccs1)c1cc2cc(-c3ccoc3)cc(Cl)c2[nH]1 [Compound 348, 7-Chloro-5-furan-3-yl-1H-indole-2-carboxylic Acid (thiophen-2-ylmethyl)-amide] | 0.1%
O=C(c1nc2c(C(F)(F)F)cc(-c3ccoc3)cc2[nH]1)N1CCC(c2ccc(F)cc2)C1 (centres unmarked) [Compound 351, [3-(4-Fluoro-phenyl)-pyrrolidin-1-yl]-(6-furan-3-yl-4-trifluoromethyl-1H-benzoimidazol-2-yl)-methanone] | 52.1%
CCn1c(C(=O)N2CCC(c3ccc(F)cc3)C2)nc2c(C(F)(F)F)cc(-c3ccoc3)cc21 (centres unmarked) [Compound 352, (1-Ethyl-6-furan-3-yl-4-trifluoromethyl-1H-benzoimidazol-2-yl)-[3-(4-fluoro-phenyl)-pyrrolidin-1-yl]-methanone] | 49.8%
CCn1c(C(=O)N2CCC(c3ccc(F)cc3)C2)nc2cc(-c3ccoc3)cc(C(F)(F)F)c21 (centres unmarked) [Compound 353, (1-Ethyl-5-furan-3-yl-7-trifluoromethyl-1H-benzoimidazol-2-yl)-[3-(4-fluoro-phenyl)-pyrrolidin-1-yl]-methanone] | 3.5%
CN(C)Cc1cccc(-c2cc(C(F)(F)F)c3nc(C(=O)N4CCC(c5ccc(F)cc5)C4)c(Cl)n3c2)c1 (centres unmarked) [Compound 354, [3-Chloro-6-(3-dimethylaminomethyl-phenyl)-8-trifluoromethyl-imidazo[1,2-a]pyridin-2-yl]-[3-(4-fluoro-phenyl)-pyrrolidin-1-yl]-methanone] | 97.8%
O=C(Nc1nc2c(C(F)(F)F)cc(-c3ccoc3)cn2c1Cl)c1cccs1 [Compound 356, Thiophene-2-carboxylic acid (3-chloro-6-furan-3-yl-8-trifluoromethyl-imidazo[1,2-a]pyridin-2-yl)-amide] | 32.5%
C=C(C)c1cc(-c2ccccc2)cn2c(Cl)c(C(=O)NCc3cccs3)nc12 [Compound 358, 3-Chloro-8-isopropenyl-6-phenyl-imidazo [1,2-a]pyridine-2-carboxylic Acid (thiophen-2-ylmethyl)-amide] | 77.3%
O=C(NCc1cccs1)c1nc2c(/C=C/c3ccccc3)cc(-c3ccccc3)cn2c1Cl [Compound 359, 3-Chloro-6-phenyl-8-styryl-imidazo[1,2-a]pyridine-2-carboxylic Acid (thiophen-2-ylmethyl)-amide] | 100%
O=C(NCc1cncs1)c1nc2c(C(F)(F)F)cc(-c3ccoc3)cn2c1Cl [Compound 360, 3-Chloro-6-furan-3-yl-8-trifluoromethyl-imidazo[1,2-a]pyridine-2-carboxylic Acid (thiazol-5-ylmethyl)-amide] | 85.2%
N#Cc1cc(-c2ccccc2)cn2c(Br)c(C(=O)NCc3cccs3)nc12 [Compound 362, 3-Bromo-8-cyano-6-phenyl-imidazo[1,2-a]pyridine-2-carboxylic Acid (thiophen-2-ylmethyl)amide] | 86.9%
O=S(=O)(Cc1ccccc1)Nc1nc2c(C(F)(F)F)cc(-c3ccco3)cn2c1Cl [Compound 363, N-(3-Chloro-6-furan-2-yl-8-trifluoromethyl-imidazo[1,2-a]pyridin-2-yl)-C-phenyl-methanesulfonamide] | 12.6%
O=C(NCc1cccs1)c1nc2c(C(F)(F)F)cc(-c3cccc(F)c3)cn2c1CN1CCOCC1 [Compound 364, 6-(3-Fluoro-phenyl)-3-morpholin-4-ylmethyl-8-trifluoromethyl-imidazo[1,2-a]pyridine-2-carboxylic Acid (thiophen-2-ylmethyl)-amide] | 5.3%
CN(C)Cc1c(C(=O)NCc2cccs2)nc2c(C(F)(F)F)cc(-c3cccc(F)c3)cn12 [Compound 365, 3-Dimethylaminomethyl-6-(3-fluoro-phenyl)-8-trifluoromethyl-imidazo[1,2-a]pyridine-2-carboxylic Acid (thiophen-2-ylmethyl)-amide] | 4.4%
O=C(NCc1cccs1)c1nc2c(C(F)(F)F)cc(-c3cccc(F)c3)cn2c1Br [Compound 367, 3-bromo-6-(3-fluoro-phenyl)-8-trifluoromethyl-imidazo[1,2-a]pyridine-2-carboxylic acid (thiophen-2-ylmethyl)-amide] | 96.2%
